Data from ChEMBL document CHEMBL3832761, “MMV Pathogen Box Bioactivity Data” (2017).
≈ marks a conversion by molar mass, not a printed value.

How the values were obtained:
Type in all cases: functional
[1] = test system: Mycobacterium tuberculosis; test: (§1) AntiMycobacterium tuberculosis activity day 10 in 7H9/2.5mM butyrate/pH6/0.1mM nitrite MIC90 (uM); settings: 240 h
[2] = test system: HepG2; test: HepG2 CC50 (uM) Cytotoxicity; settings: Homo sapiens
[3] = test system: Mycobacterium tuberculosis; test: AntiMycobacterium tuberculosis activity 1-week 7H9/DPPC/cholesterol/BSA/Tx MIC (uM); settings: 168 h
[4] = test system: Mycobacterium tuberculosis; test: AntiMycobacterium tuberculosis activity day 21 in 7H9/2.5mM butyrate/pH6/0.1mM nitrite MIC90 (uM); settings: 504 h
[5] = test system: Mycobacterium tuberculosis; test: AntiMycobacterium tuberculosis activity 1-week 7H9/ADC/Tw MIC (uM); settings: 168 h
[6] = test system: Mycobacterium tuberculosis; test: AntiMycobacterium tuberculosis activity 2-week 7H9/glucose/BSA/Tx MIC (uM); settings: 336 h
[7] = test system: Mycobacterium tuberculosis; test: AntiMycobacterium tuberculosis activity 2-week 7H9/ADC/Tw MIC (uM); settings: 336 h
[8] = test system: Mycobacterium tuberculosis; test: AntiMycobacterium tuberculosis activity 1-week 7H9/glucose/BSA/Tx MIC (uM); settings: 168 h
[9] = test system: Mycobacterium tuberculosis; test: AntiMycobacterium tuberculosis activity day 21 MIC99 in 7H9/2.5mM butyrate/pH6/0.1mM nitrite MIC99 (uM); settings: 504 h
[10] = test system: Mycobacterium tuberculosis; test: as §1; settings: 240 h; remark: listed apart in the source
[11] = test system: Mycobacterium tuberculosis; test: AntiMycobacterium tuberculosis activity 1-week 7H9/cholesterol/BSA/Tx MIC (uM); settings: 168 h
[12] = test system: Mycobacterium tuberculosis; test: AntiMycobacterium tuberculosis activity 2-week Alamar Blue 7H9/ADC/Tw MIC (uM); settings: 336 h
[13] = test system: Mycobacterium tuberculosis; test: AntiMycobacterium tuberculosis activity Non-Replicating form: Average MIC90 (uM)
[14] = test system: Mycobacterium tuberculosis; test: AntiMycobacterium tuberculosis activity 2-week Alamar Blue 7H9/cholesterol/BSA/Tx MIC (uM); settings: 336 h
[15] = test system: Mycobacterium tuberculosis; test: AntiMycobacterium tuberculosis activity 2-week GAST/Fe MIC (uM); settings: 336 h
[16] = test system: Mycobacterium tuberculosis; test: AntiMycobacterium tuberculosis activity Replicating form: Average MIC90 (uM)
[17] = test system: Mycobacterium tuberculosis; test: AntiMycobacterium tuberculosis activity 2-week 7H9/DPPC/cholesterol/BSA/Tx MIC (uM); settings: 336 h
[18] = test system: Mycobacterium tuberculosis; test: AntiMycobacterium tuberculosis activity 1-week GAST/Fe MIC (uM); settings: 168 h

SMILES: O=C(NCc1ccoc1)N1CCN(Cc2ccc3c(c2)OCO3)CC1
- MIC90 [1]: 6.25 µM (≈ 2.15 µg/mL)
- CC50 [2]: > 100 µM
- MIC [3]: 4.7 µM (≈ 1.61 µg/mL)
- MIC90 [4]: 25 µM (≈ 8.58 µg/mL)
- MIC [5]: > 50 µM
- MIC [6]: > 50 µM
- MIC [7]: > 50 µM
- MIC [8]: 37 µM (≈ 12.7 µg/mL)
- MIC [9]: 25 µM (≈ 8.58 µg/mL)
- MIC90 [10]: 6.25 µM (≈ 2.15 µg/mL)
- MIC [11]: 3.13 µM (≈ 1.07 µg/mL)
- MIC [12]: 6.25 µM (≈ 2.15 µg/mL)
- MIC90 [13]: 57.1 µM (≈ 19.6 µg/mL)
- MIC [14]: 2.3 µM (≈ 0.79 µg/mL)
- MIC [15]: 0.78 µM (≈ 0.268 µg/mL)
- MIC90 [16]: > 100 µM
- MIC [17]: 25 µM (≈ 8.58 µg/mL)
- MIC [18]: 0.39 µM (≈ 0.134 µg/mL)

SMILES: Cc1cnc(N2CCN[C@@H](Cc3ccccc3)C2)nc1Oc1ccc(-n2ccnc2)cc1
- MIC90 [1]: > 50 µM
- CC50 [2]: 14.1 µM
- MIC [3]: 12.5 µM (≈ 5.33 µg/mL)
- MIC90 [4]: > 50 µM
- MIC [5]: 25 µM (≈ 10.7 µg/mL)
- MIC [6]: 37 µM (≈ 15.8 µg/mL)
- MIC [7]: 37 µM (≈ 15.8 µg/mL)
- MIC [8]: 19 µM (≈ 8.1 µg/mL)
- MIC [9]: > 50 µM
- MIC90 [10]: > 50 µM
- MIC [11]: 12.5 µM (≈ 5.33 µg/mL)
- MIC [12]: 19 µM (≈ 8.1 µg/mL)
- MIC90 [13]: 27.7 µM (≈ 11.8 µg/mL)
- MIC [14]: 50 µM (≈ 21.3 µg/mL)
- MIC [15]: 9.4 µM (≈ 4.01 µg/mL)
- MIC90 [16]: 8.88 µM (≈ 3.79 µg/mL)
- MIC [17]: 37 µM (≈ 15.8 µg/mL)
- MIC [18]: 6.25 µM (≈ 2.67 µg/mL)

SMILES: NC(CC(=O)c1ccc(Cl)cc1Cl)C(Cl)(Cl)Cl (configuration not stated)
- MIC90 [1]: > 50 µM
- CC50 [2]: 37.9 µM
- MIC [3]: 37 µM (≈ 12.4 µg/mL)
- MIC90 [4]: 12.5 µM (≈ 4.19 µg/mL)
- MIC [5]: 12.5 µM (≈ 4.19 µg/mL)
- MIC [6]: 25 µM (≈ 8.39 µg/mL)
- MIC [7]: 12.5 µM (≈ 4.19 µg/mL)
- MIC [8]: 19 µM (≈ 6.37 µg/mL)
- MIC [9]: > 50 µM
- MIC90 [10]: 12.5 µM (≈ 4.19 µg/mL)
- MIC [11]: 19 µM (≈ 6.37 µg/mL)
- MIC [12]: 12.5 µM (≈ 4.19 µg/mL)
- MIC90 [13]: 6.04 µM (≈ 2.03 µg/mL)
- MIC [14]: 25 µM (≈ 8.39 µg/mL)
- MIC [15]: 0.6 µM (≈ 0.201 µg/mL)
- MIC90 [16]: 17.4 µM (≈ 5.83 µg/mL)
- MIC [17]: 50 µM (≈ 16.8 µg/mL)
- MIC [18]: 0.39 µM (≈ 0.131 µg/mL)

SMILES: O=C(NCc1ccco1)N1CCN(Cc2ccc(Cl)s2)CC1
- MIC90 [1]: > 50 µM
- CC50 [2]: > 100 µM
- MIC [3]: 37 µM (≈ 12.6 µg/mL)
- MIC90 [4]: > 50 µM
- MIC [5]: > 50 µM
- MIC [6]: > 50 µM
- MIC [7]: > 50 µM
- MIC [8]: > 50 µM
- MIC [9]: > 50 µM
- MIC90 [10]: 50 µM (≈ 17 µg/mL)
- MIC [11]: 37 µM (≈ 12.6 µg/mL)
- MIC [12]: 12.5 µM (≈ 4.25 µg/mL)
- MIC90 [13]: 90.2 µM (≈ 30.6 µg/mL)
- MIC [14]: 12.5 µM (≈ 4.25 µg/mL)
- MIC [15]: 1.2 µM (≈ 0.408 µg/mL)
- MIC90 [16]: > 100 µM
- MIC [17]: 50 µM (≈ 17 µg/mL)
- MIC [18]: 0.6 µM (≈ 0.204 µg/mL)

SMILES: c1cncc(NCc2ccc(-c3cc4ccncc4cc3OC3CCNCC3)s2)c1
- MIC90 [1]: > 50 µM
- CC50 [2]: 8 µM
- MIC [3]: 50 µM (≈ 20.8 µg/mL)
- MIC90 [4]: > 50 µM
- MIC [5]: 50 µM (≈ 20.8 µg/mL)
- MIC [6]: ≥ 50 µM
- MIC [7]: 37 µM (≈ 15.4 µg/mL)
- MIC [8]: ≥ 50 µM
- MIC [9]: > 50 µM
- MIC90 [10]: > 50 µM
- MIC [11]: 50 µM (≈ 20.8 µg/mL)
- MIC [12]: 12.5 µM (≈ 5.21 µg/mL)
- MIC90 [13]: 58.7 µM (≈ 24.5 µg/mL)
- MIC [14]: 37 µM (≈ 15.4 µg/mL)
- MIC [15]: 4.7 µM (≈ 1.96 µg/mL)
- MIC90 [16]: 11.8 µM (≈ 4.92 µg/mL)
- MIC [17]: 50 µM (≈ 20.8 µg/mL)
- MIC [18]: 3.13 µM (≈ 1.3 µg/mL)

SMILES: CCCCS(=O)(=O)Nc1ccc2cnn(C)c2c1
- MIC90 [1]: > 50 µM
- CC50 [2]: > 100 µM
- MIC [3]: 0.39 µM (≈ 0.104 µg/mL)
- MIC90 [4]: 50 µM (≈ 13.4 µg/mL)
- MIC [5]: 0.6 µM (≈ 0.16 µg/mL)
- MIC [6]: 0.78 µM (≈ 0.209 µg/mL)
- MIC [7]: 0.6 µM (≈ 0.16 µg/mL)
- MIC [8]: 0.39 µM (≈ 0.104 µg/mL)
- MIC [9]: 50 µM (≈ 13.4 µg/mL)
- MIC90 [10]: 12.5 µM (≈ 3.34 µg/mL)
- MIC [11]: 0.6 µM (≈ 0.16 µg/mL)
- MIC [12]: 0.6 µM (≈ 0.16 µg/mL)
- MIC90 [13]: 1.39 µM (≈ 0.372 µg/mL)
- MIC [14]: 2.3 µM (≈ 0.615 µg/mL)
- MIC [15]: 0.6 µM (≈ 0.16 µg/mL)
- MIC90 [16]: 0.69 µM (≈ 0.184 µg/mL)
- MIC [17]: 0.6 µM (≈ 0.16 µg/mL)
- MIC [18]: 0.3 µM (≈ 0.0802 µg/mL)

SMILES: c1ccc(C[C@@H]2CN(c3nccc(Oc4ccc(-n5ccnc5)cc4)n3)CCN2)cc1
- MIC90 [1]: 50 µM (≈ 20.6 µg/mL)
- CC50 [2]: 29 µM
- MIC [3]: 25 µM (≈ 10.3 µg/mL)
- MIC90 [4]: 25 µM (≈ 10.3 µg/mL)
- MIC [5]: 50 µM (≈ 20.6 µg/mL)
- MIC [6]: 50 µM (≈ 20.6 µg/mL)
- MIC [7]: 50 µM (≈ 20.6 µg/mL)
- MIC [8]: 37 µM (≈ 15.3 µg/mL)
- MIC [9]: 50 µM (≈ 20.6 µg/mL)
- MIC90 [10]: 25 µM (≈ 10.3 µg/mL)
- MIC [11]: 9.4 µM (≈ 3.88 µg/mL)
- MIC [12]: 19 µM (≈ 7.84 µg/mL)
- MIC90 [13]: 38.1 µM (≈ 15.7 µg/mL)
- MIC [14]: 12.5 µM (≈ 5.16 µg/mL)
- MIC [15]: 37 µM (≈ 15.3 µg/mL)
- MIC90 [16]: 16.5 µM (≈ 6.82 µg/mL)
- MIC [17]: 37 µM (≈ 15.3 µg/mL)
- MIC [18]: 37 µM (≈ 15.3 µg/mL)

SMILES: Brc1c(-c2ccc3c(c2)OCO3)nc2ncccn12
- MIC90 [1]: > 50 µM
- CC50 [2]: > 100 µM
- MIC [3]: 3.13 µM (≈ 0.996 µg/mL)
- MIC90 [4]: 12.5 µM (≈ 3.98 µg/mL)
- MIC [5]: 25 µM (≈ 7.95 µg/mL)
- MIC [6]: 37 µM (≈ 11.8 µg/mL)
- MIC [7]: 37 µM (≈ 11.8 µg/mL)
- MIC [8]: 25 µM (≈ 7.95 µg/mL)
- MIC [9]: 50 µM (≈ 15.9 µg/mL)
- MIC90 [10]: 1.5 µM (≈ 0.477 µg/mL)
- MIC [11]: 1.56 µM (≈ 0.496 µg/mL)
- MIC [12]: 4.7 µM (≈ 1.5 µg/mL)
- MIC90 [13]: 27.8 µM (≈ 8.84 µg/mL)
- MIC [14]: 2.3 µM (≈ 0.732 µg/mL)
- MIC [15]: 0.3 µM (≈ 0.0954 µg/mL)
- MIC90 [16]: 45.1 µM (≈ 14.4 µg/mL)
- MIC [17]: 25 µM (≈ 7.95 µg/mL)
- MIC [18]: 0.2 µM (≈ 0.0636 µg/mL)

SMILES: CC1COC2(CCN(c3nc(=O)c4cc(C(F)(F)F)cc([N+](=O)[O-])c4s3)CC2)O1 (configuration not stated)
- MIC90 [1]: ≤ 0.04 µM
- CC50 [2]: > 100 µM
- MIC [3]: < 0.02 µM
- MIC90 [4]: ≤ 0.04 µM
- MIC [5]: < 0.02 µM
- MIC [6]: < 0.02 µM
- MIC [7]: < 0.02 µM
- MIC [8]: < 0.02 µM
- MIC [9]: ≤ 0.04 µM
- MIC90 [10]: ≤ 0.04 µM
- MIC [11]: < 0.02 µM
- MIC [12]: < 0.02 µM
- MIC90 [13]: < 0.01 µM
- MIC [14]: < 0.02 µM
- MIC [15]: < 0.02 µM
- MIC90 [16]: < 0.01 µM
- MIC [17]: < 0.02 µM
- MIC [18]: < 0.02 µM
